The results in this text go back to patent US7608718B2, “4,5-dihydro-1H-pyrazole derivatives having potent CB1-antagonistic activity” (Solvay Pharmaceuticals B.V., priority 2001, dated 2009).

Usually melting point stands for the temperature, or range, at which the solid turns liquid.

Consider `CCCN(C)S(=O)(=O)N=C(NC)N1CC(c2ccccc2)C(c2ccc(Cl)cc2)=N1` (stereo not drawn), for which the melting point was in the range of 132 to 134 °C.

For the molecule `CN(C)S(=O)(=O)N=C(NCC(F)(F)F)N1CC(c2ccccc2)C(c2ccc(Cl)cc2)=N1` (stereo not drawn), the melting point lay in the range of 158 to 159 °C. For `CSC(=NS(=O)(=O)N1CCCCC1)N1CC(c2ccccc2)C(c2ccc(Cl)cc2)=N1` (stereo not drawn) the value was 192 to 194 °C; for `CSC(=NS(=O)(=O)N1CCOCC1)N1CC(c2ccccc2)C(c2ccc(Cl)cc2)=N1` (stereo not drawn), 202 to 204 °C; for `CSC(=NS(=O)(=O)N(C)C)N1CC(c2c(F)cccc2F)C(c2ccc(Cl)cc2)=N1` (stereo not drawn), 181 to 185 °C. The molecule `CCN(CC)S(=O)(=O)N=C(NC1CC1)N1CC(c2ccccc2)C(c2ccc(Cl)cc2)=N1` (stereo not drawn) registered a melting point of 150 to 151 °C. `CCN(C)C(=NS(=O)(=O)N1CCCCC1)N1CC(c2ccccc2)C(c2ccc(Cl)cc2)=N1` (stereo not drawn) yielded a melting point of 178 °C. The result for `CCN(c1ccccc1)S(=O)(=O)N=C(NC)N1CC(c2ccccc2)C(c2ccc(Cl)cc2)=N1` (stereo not drawn) reads 145 to 147 °C; that for `CNC(=NS(=O)(=O)N1CCCCC1)N1CC(c2cccc(C(F)(F)F)c2)C(c2ccc(Cl)cc2)=N1` (stereo not drawn), 168 to 170 °C; that for `CNC(=NS(=O)(=O)N(C)C)N1CC(c2cccc(C(F)(F)F)c2)C(c2ccc(Cl)cc2)=N1` (stereo not drawn), 65 to 68 °C.

Regarding `CCN(C)S(=O)(=O)N=C(NC)N1CC(c2cccnc2)C(c2ccc(Cl)cc2)=N1` (stereo not drawn), the melting point was in the range of 125 to 128 °C. For the molecule `CCCN(CC)S(=O)(=O)N=C(NC)N1CC(c2ccccc2)C(c2ccc(Cl)cc2)=N1` (stereo not drawn) [Example 1, 3-(4-Chlorophenyl)-N′-(((ethyl)propylamino)sulfonyl)-N-methyl-4-phenyl-4,5-dihydro-1H-pyrazole-1-carboxamidine], the melting point was in the range of 129 to 131 °C. For `CCN(CC)S(=O)(=O)N=C(NCCO)N1CC(c2ccccc2)C(c2ccc(Cl)cc2)=N1` (stereo not drawn) [Example 3, 3-(4-Chlorophenyl)-N′-((diethylamino)sulfonyl)-N-(2-hydroxyethyl)-4-phenyl-4,5-dihydro-1H-pyrazole-1-carboxamidine] the value was 104 to 106 °C. Regarding `CN(C)S(=O)(=O)N=C(NCCO)N1CC(c2ccccc2)C(c2ccc(Cl)cc2)=N1` (stereo not drawn) [Example 18, 3-(4-Chlorophenyl)-N′-((dimethylamino)sulfonyl)-N-(2-hydroxyethyl)-4-phenyl-4,5-dihydro-1H-pyrazole-1-carboxamidine], the melting point was in the range of 123 to 126 °C.

Regarding `CCCN(CCC)S(=O)(=O)N=C(NC)N1CC(c2ccccc2)C(c2ccc(Cl)cc2)=N1` (stereo not drawn) [Example 26, 3-(4-Chlorophenyl)-N′-((dipropylamino)sulfonyl)-N-methyl-4-phenyl-4,5-dihydro-1H-pyrazole-1-carboxamidine], the melting point lay within 141 to 142 °C. On to `CCCNC(=NS(=O)(=O)N(C)C)N1CC(c2ccccc2)C(c2ccc(Cl)cc2)=N1` (stereo not drawn) [Example 31, 3-(4-Chlorophenyl)-N′-((dimethylamino)sulfonyl)-N-propyl-4-phenyl-4,5-dihydro-1H-pyrazole-1-carboxamidine], for which the melting point fell in the range of 127 to 129 °C.

Take `CN(C)S(=O)(=O)N=C(NCCF)N1CC(c2ccccc2)C(c2ccc(Cl)cc2)=N1` (stereo not drawn) [Example 32, 3-(4-Chlorophenyl)-N′-((dimethylamino)sulfonyl)-N-(2-fluoroethyl)-4-phenyl-4,5-dihydro-1H-pyrazole-1-carboxamidine]: the melting point was 128 to 131 °C. For `CONC(=NS(=O)(=O)N(C)C)N1CC(c2ccccc2)C(c2ccc(Cl)cc2)=N1` (stereo not drawn) [Example 34, 3-(4-Chlorophenyl)-N′-((dimethylamino)sulfonyl)-N-methoxy-4-phenyl-4,5-dihydro-1H-pyrazole-1-carboxamidine] the value was 170 to 172 °C.
